Results reported in PMC3546862, “Assessing the utility of an anti-malarial pharmacokinetic-pharmacodynamic model for aiding drug clinical development” (Malaria Journal, 2012).
Values after ≈ are worked out from the molar mass of the structure shown. Like-named read-outs stand apart in the source and are kept apart here. Marks after values point to notes of the source that are not given here.

Key:
[1] = Whole blood to plasma partitioning ratio (B/P); type: in vitro ADME; conditions: human, whole blood and plasma; 37°C, 2 min incubation
Protocol: The whole blood to plasma partitioning ratio (B/P) was determined by spiking aliquots of whole blood or plasma maintained at 37°C with compound, incubating for 2 min, and then centrifuging the whole blood sample to obtain the plasma fraction. Both the plasma fraction of whole blood and the plasma control were assayed for compound by LC-MS as described above. The blood to plasma ratio was calculated from the ratio of the concentration in the plasma control (used as a surrogate for the total whole blood concentration since whole blood assays were not available for each compound) to that in the plasma fraction of whole blood. The two-minute time point was used to avoid confounding issues due to potential blood instability; rapid equilibration between plasma and erythrocytes was assumed.

[2] = system: P. falciparum; assay: Parasite reduction ratio from published clinical data and kmax calculated from it; type: in vivo; conditions: kmax = 1/KZ x ln PRR + 1/48 x ln PMF, PMF = 10
Text: (§1) The maximal killing rate (kmax) of the drug was assumed to follow a triangular distribution. The middle values were taken from published clinical data. Piperaquine was the only drug with no clinical studies of it administered as a monotherapy and the mode was set to a value equal to that derived from in vitro experiments. The minimum and maximum values of the triangular distribution for each anti-malarial correspond to a 50-fold decrease and 50-fold increase in the number of parasites killed every 48 hours.

[3] = system: P. falciparum strain NF54; assay: [3H]-hypoxanthine incorporation assay, asynchronous intraerythrocytic forms; type: cell-based; conditions: for IC50: Plasmodium falciparum
Protocol: (§2) The fresh P. falciparum parasite isolates were obtained from blood samples of 487 patients attending outpatient clinics in Papua, Indonesia between 2004 and 2010 [26]. The in vitro drug susceptibility was determined using the World Health Organization guidelines for schizont maturation tests. The in vitro data for artemether were measured at the Swiss Tropical and Public Health Institute (Switzerland; Basel) against asynchronous intraerythrocytic forms of the P. falciparum strain NF54 (obtained from MR4) using the [3H]-hypoxanthine incorporation assay.

[4] = target: 0.5% Albumax in RPMI (Bos taurus, UniProt P02769); assay: Binding to in vitro testing media by ultracentrifugation; type: in vitro ADME; conditions: ultracentrifugation 4.2 hours at 37°C
Chain of 0.5% Albumax in RPMI (P02769 25-607): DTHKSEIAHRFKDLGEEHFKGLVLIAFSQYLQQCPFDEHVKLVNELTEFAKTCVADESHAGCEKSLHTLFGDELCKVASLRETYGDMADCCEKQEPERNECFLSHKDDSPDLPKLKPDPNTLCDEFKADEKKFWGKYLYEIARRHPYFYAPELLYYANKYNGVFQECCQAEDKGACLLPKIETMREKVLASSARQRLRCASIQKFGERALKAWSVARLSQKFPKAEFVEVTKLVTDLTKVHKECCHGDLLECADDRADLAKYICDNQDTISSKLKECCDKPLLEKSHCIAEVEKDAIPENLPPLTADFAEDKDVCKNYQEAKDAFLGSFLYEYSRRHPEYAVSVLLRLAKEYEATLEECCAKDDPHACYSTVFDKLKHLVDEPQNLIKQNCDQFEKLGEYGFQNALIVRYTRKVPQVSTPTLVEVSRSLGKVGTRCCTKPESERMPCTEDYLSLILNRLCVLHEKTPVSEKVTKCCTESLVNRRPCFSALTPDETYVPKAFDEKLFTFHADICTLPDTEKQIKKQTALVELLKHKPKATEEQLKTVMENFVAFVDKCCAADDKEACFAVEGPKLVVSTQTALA
Protocol: (§3) Estimates of drug binding to the in vitro testing media (i.e. 0.5% Albumax in RPMI) and human plasma were determined using ultracentrifugation. Briefly, blank Albumax media and plasma were each spiked with compound and divided into six aliquots; three aliquots were subjected to ultracentrifugation (Beckman Optima XL-100K Ultracentrifuge, Rotor type 42.2 Ti; 223,000 x g) for 4.2 hours at 37°C to pellet the proteins whereas the remaining three aliquots served as controls and were incubated at 37°C for the same time period but without centrifugation. Controls were also stored at −20°C to confirm sample stability over the centrifugation period. Aliquots of the supernatants from the ultracentrifuged samples were first diluted 1:1 in acetonitrile, assayed by LC-MS and the responses compared to a calibration curve prepared in 50% aqueous acetonitrile to determine the unbound (i.e. free) concentration. Control concentrations in each matrix were determined using LC-MS by first precipitating the proteins with acetonitrile (3:1 acetonitrile: matrix) and then comparing the responses to a calibration curve from a blank matrix prepared using the same protein precipitation procedure. The free fraction in each matrix was then determined from the ratio of the average unbound (e.g. free) concentration to the average total concentration in each matrix.

[5] = cited from earlier work
[6] = system: P. falciparum; design: method as in PMID 2648881; conditions: assumed; cited from earlier work
[7] = system: human plasma protein; assay: Human plasma protein binding by ultracentrifugation; type: in vitro ADME; conditions: ultracentrifugation 4.2 hours at 37°C
Protocol: as §3

[8] = system: fresh P. falciparum parasite isolates; assay: In vitro drug susceptibility, schizont maturation test (WHO guidelines) on fresh patient isolates; type: cell-based; conditions: for IC50: Plasmodium falciparum; for γ, mean on loge scale of log-normal distribution lnN(μ ln, σ ln): first parameter of lnN; for γ (Slope of concentration-effect curve): in vitro
Protocol: as §2

[9] = system: P. falciparum; conditions: every 48 hours; published clinical data; cited from earlier work
[10] = system: P. falciparum; assay: Parasite reduction ratio from in vitro killing rate experiments and kmax calculated from it; type: cell-based; conditions: kmax = 1/KZ x ln PRR + 1/48 x ln PMF, PMF = 10; PRR from in vitro experiments
Text: as §1

[11] = system: ring stage parasites; design: method as in PMID 21173254; conditions: patients with delayed PCTs; cited from earlier work
[12] = geometric mean, adjusted to whole blood, lower limit a of EC50 distribution, read-out: IC50 (adjusted) concentration
[13] = geometric mean, not corrected for binding, isolates of 487 patients, Papua, Indonesia, read-out: IC50 measured concentration
[14] = not corrected for binding, from nM and molecular weight, read-out: IC50 concentration

CO[C@H]1O[C@@H]2O[C@@]3(C)CC[C@H]4[C@H](C)CC[C@@H]([C@H]1C)[C@@]24OO3 [ART, artemether]
blood plasma ratio at 2 min [1]: 0.8
kmax, mode c of triangular distribution TRI(a, b, c) [2]: TRI(0.12, 0.33, 0.22)^c /h
IC50 ([3]; adjusted to whole blood, lower limit a of EC50 distribution, read-out: IC50 (adjusted) concentration): 4.38 ng/mL (≈ 0.0147 µM)
IC50 ([3]; not corrected for binding, read-out: IC50 concentration): 2.64 ng/mL (≈ 0.00885 µM)
γ, mean on loge scale of log-normal distribution lnN(μ ln, σ ln) ([3]; first parameter of lnN): lnN(1.53, 0.31)
γ (Slope of concentration-effect curve) ([3]; in vitro): 4.61
Binding to media of in vitro experiment (0.5% Albumax) [4]: 82.8 % bound
CL/F (clearance) [5]: 180 L/h
V/F (volume of distribution) [5]: 217 L
ka (absorption rate constant) [5]: 0.37 h⁻¹
KZ (length of the killing zone) [6]: 38 h
Human plasma protein binding [7]: 91.7 % bound

CCCCN(CCCC)CC(O)c1cc(Cl)cc2c1-c1ccc(Cl)cc1/C2=C/c1ccc(Cl)cc1 (stereo not drawn) [LF, lumefantrine]
blood plasma ratio at 2 min [1]: 0.8
IC50 [8, 12]: 1.75 ng/mL
IC50 [8, 13]: 13.4 nM
IC50 [8, 14]: 7.1 ng/mL
γ, mean on loge scale of log-normal distribution lnN(μ ln, σ ln) [8]: lnN (0.81, 0.58)
γ (Slope of concentration-effect curve) [8]: 2.24
kmax, mode c of triangular distribution TRI(a, b, c) [2]: TRI(0.18, 0.54, 0.36)^c /h
Binding to media of in vitro experiment (0.5% Albumax) [4]: 99.6 % bound
CL/F (clearance) [5]: 7.04 L/h
Q/F (inter-compartmental clearance) [5]: 4.08 L/h
Vc/F (volume of central compartment) [5]: 103 L
Vp/F (volume of peripheral compartment) [5]: 272 L
ka (absorption rate constant) [5]: 0.17 h⁻¹
KZ (length of the killing zone) [6]: 22 h
Human plasma protein binding [7]: 98.7 % bound
PRR (parasite reduction ratio) [9]: 10^3

OC(c1cc(C(F)(F)F)nc2c(C(F)(F)F)cccc12)C1CCCCN1 (stereo not drawn) [MQ, mefloquine]
IC50 [8, 12]: 21 ng/mL
IC50 [8, 13]: 9.34 nM
IC50 [8, 14]: 3.53 ng/mL
γ, mean on loge scale of log-normal distribution lnN(μ ln, σ ln) [8]: lnN (0.97, 0.54)
IC50 (adjusted) concentration ([8]; geometric mean, adjusted to whole blood, lower limit a of EC50 distribution): 20.48 ng/mL (≈ 0.0541 µM)
γ (Slope of concentration-effect curve) [8]: 2.63
kmax, mode c of triangular distribution TRI(a, b, c) [2]: TRI(0.11, 0.46, 0.28)^c /h
Binding to media of in vitro experiment (0.5% Albumax) [4]: 85 % bound
V/F (volume of distribution) [5]: 10.2^f L/kg
KZ (length of the killing zone) [6]: 22 h
Human plasma protein binding [7]: 95.6 % bound

Clc1ccc2c(N3CCN(CCCN4CCN(c5ccnc6cc(Cl)ccc56)CC4)CC3)ccnc2c1 [PQ, piperaquine]
kmax, mode c of triangular distribution TRI(a, b, c) [10]: TRI(0.33, 0.65, 0.49)^c /h
blood plasma ratio at 2 min [1]: 0.9
IC50 [8, 12]: 11.6 ng/mL
IC50 [8, 13]: 17.7 nM
IC50 [8, 14]: 9.46 ng/mL
γ (Slope of concentration-effect curve) [8]: 3.48
Binding to media of in vitro experiment (0.5% Albumax) [4]: 98.1 % bound
CL/F (clearance) ([5]; 48kg individual): 66 L/h
Q/F (inter-compartmental clearance) ([5]; 48kg individual): 131 L/h
Vc/F (volume of central compartment) ([5]; 48kg individual): 8660 L
Vp/F (volume of peripheral compartment) ([5]; 48kg individual): 24000 L
ka (absorption rate constant) ([5]; 48kg individual): 0.717 h⁻¹
KZ (length of the killing zone) [6]: 24 h
Human plasma protein binding [7]: 98.6 % bound

C[C@H]1[C@H](OC(=O)CCC(=O)O)O[C@@H]2O[C@@]3(C)CC[C@H]4[C@H](C)CC[C@@H]1[C@@]24OO3 [artesunate]
Maximal killing rate for the ring stages, mean [11]: 62 % /cycle
